Reference: patent US9364388B2, “Methods of treatment with nitric oxide at pressures greater than one atmosphere” (Barry University, priority 2012, dated 2016)

Key:
[1] = Percutaneous absorption of nitric oxide, in vitro Franz human skin finite dose model; assay type: in vitro ADME; conditions: delivered at a pressure of 1.2 atm as compared with normal pressure; Franz diffusion cell, human skin (FIG. 10)
Description: The percutaneous absorption of nitric oxide is evaluated using a Franz human skin finite dose model. The in vitro Franz human skin finite dose model has proven to be a valuable tool for the study of percutaneous absorption and the determination of the pharmacokinetics of topically applied drugs. The model uses human ex vivo cadaver or surgical skin mounted in a specially designed diffusion chamber allowing the skin to be maintained at a temperature and humidity that match typical in vivo conditions. A finite dose of a formulation is applied to the outer surface of the skin and drug absorption is measured by monitoring its rate of appearance in the reservoir solution bathing the inner surface of the skin. In this study, the applied dose is a controlled continuous exposure to a gas. Data defining total absorption, rate of absorption, as well as skin content can be accurately determined in this model. […]
A single center, open label study of nitric oxide formulations is performed. […] The rate and extent of penetration of nitric oxide, at normal pressure and at greater than 1 atm of pressure (e.g., 1.2×, 1.5×, 1.8×, 2.0×, 2.2×, etc.) for continuous exposure durations of 30 and 60 minutes is determined for the amount penetrating through the skin and into the different layers of the skin using a Franz Diffusion Cell. […]

[2] = mixture of 1000 ppm nitric oxide and 21% oxygen; cited from earlier work

[N]=O [NO, nitric oxide]
NO penetration in the epidermis and stratum corneum [1]: increased | time for half of the nitric oxide to react to become nitric dioxide [2]: about 3.5 minutes
